Laboratory results from US5254571A, “Chemical compounds” (Smith Kline & French Laboratories Ltd., priority 1988, dated 1993).

Experiments:
[1] = biological target: calmodulin insensitive cyclic GMP phosphodiesterase (Homo sapiens, UniProt O76074); assay: Phosphodiesterase activity: inhibition of calmodulin insensitive cyclic GMP phosphodiesterase; assay type: biochemical; conditions: procedure described in European Patent Application No. 293063; range given for the listed Examples together; read-out: IC50 (concentration of inhibitor required for 50% inhibition of enzyme activity)
Protocol: The activity of the compounds of the present invention as inhibitors of a calmodulin insensitive cyclic GMP phosphodiesterase was measured using the procedure described in European Patent Application No. 293063. […] The compounds of the present invention have the advantage that they are selective in not inhibiting cyclic AMP phosphodiesterase (type III).

[2] = system: U46619-induced bronchoconstriction; assay: Bronchodilatation in vivo: inhibition of U46619-induced bronchoconstriction in anaesthetised guinea-pigs; set-up: species or system guinea-pig (male, Dunkin Hartley); conditions: Cavia porcellus, iv, U46619 infused i.v. 2.5 nmol/min, compound i.v. bolus, peak inhibition, read-out: BD50 (dose required to reduce the U46619-induced bronchoconstriction by 50%)
Protocol: Male guinea-pigs of the Dunkin Hartley strain (500-600 g) were anaesthetised with Sagatal (pentobarbital sodium) (60 mg/kg). Airway resistance was measured using a modification of the classical Konzett-Rossler technique (J. Pharm. Methods, 13, 309-315, 1985). U46619 (9,11-methanoepoxy-pGH2) was infused i.v. at a rate of 2.5 nmol/min, this produced a steady state of bronchoconstriction (approximately 120% increase from basal airway resistance). The compound under test was administered by i.v. bolus injection, and the subsequent peak inhibition of bronchoconstriction recorded.
The dose of compound required to reduce the U46619-induced bronchoconstriction by 50% is given as the BD50.

[3] = system: hindquarter blood flow / vascular resistance; assay: Vasodilatation in vivo: hindquarter blood flow in anaesthetised rats; set-up: species or system rat (male Wistar); conditions: Rattus norvegicus, iv, bolus i.v., from dose response curves, read-out: EDHQ50 (dose required to produce a 50% increase in hindquarter blood flow)
Protocol: Male Wistar rats (300 g) were anaesthetised with a sodium 5-ethyl-5-(1-methylpropyl)-2-thiobarbiturate/sodium pentobarbitone mixture i.p. (62.5 and 22.5 mg/kg respectively). The trachea was cannulated and the rats breathed spontaneously air enriched with O2 (5 ml/min). Blood pressure was recorded from a carotid artery and a jugular vein was cannulated for the administration of compounds. The temperature of the animal was maintained at 37° C. by the use of an electric blanket. […] The perfusion circuit was primed with 5% bovine serum albumin dissolved in 0.9% sodium chloride solution, pH adjusted to 7.4. Initially the pump rate was set between 10 and 15 ml/min to match the hind quarter perfusion pressure to that of the systemic circulation. Once set, the pressure remained unaltered for the rest of the experiment. A change in the speed of the pump (equivalent to hindquarter blood flow) was used to assess the changes in hindquarter vascular resistance.
All compounds were administered as a bolus i.v. and from the dose response curves the dose required to produce a 50% increase in hindquarter blood flow (EDHQ50) was determined in μmoles/kg.

[4] = system: ovalbumen-induced bronchoconstrictor response; assay: Anti-allergic activity: ovalbumen-induced bronchoconstriction in sensitised guinea-pigs; assay type: in vivo, guinea-pig (male, Duncan Hartley); conditions: 11 μmol/kg i.v. bolus; 30 minutes following drug administration; ovalbumen 1 mg/kg i.v. challenge; n = 6
Protocol: Male Duncan Hartley guinea-pigs (250-300 g) were sensitised to ovalbumen by i.p. injection of 2 ml of 50 mg.ml^-1 i.p. and 0.2 ml s.c. Three weeks later they were anaesthetised with 60 mg.kg^-1 sodium pentabarbitone. The trachea was cannulated and the animal respired at a rate of 40 breaths per minute and at an initial tracheal inflation pressure of 16 mmHg. Tracheal inflation pressure was measured by a transducer connected to a side arm of the respiration circuit The carotid artery was cannulated for the measurement of blood pressure and the signal was used to trigger an instantaneous rate meter. A jugular vein was cannulated for the administration of drug and allergen. After surgery the animals were allowed to stabilise and the drug was administered i.v. as a bolus. Following this, ovalbumen 1 mg.kg^-1 was injected i.v. as the antigen challenge either 2, 15 or 30 minutes following drug treatment and the peak bronchoconstrictor response recorded. For the control group ovalbumen only was given. One ovalbumen challenge per guinea-pig was used and n = 6 for each time point. The percentage increase in tracheal inflation pressure was calculated.

SMILES	IC50 [1]	ED50 [2]	ED (50% increase) [3]	inhibition of the control bronchoconstrictor response [4]
CCCOc1ccccc1-c1ccc(C(N)=O)c(=O)[nH]1 [Example 2, 6-(2-Propoxyphenyl)-1,2-dihydro-2-oxopyridine-3-carboxamide]	1.7 to 30 µM	1.1 µmol/kg	14 µmol/kg	44%
CCCOc1ccccc1-c1cc(C)c(C#N)c(=O)[nH]1 [Example 11, 3-Cyano-4-methyl-6-(2-propoxyphenyl)-2(1H)-pyridinone]	1.7 to 30 µM	2.3 µmol/kg	–	–
CCCOc1ccccc1-c1ccc([N+](=O)[O-])c(=O)[nH]1 [Example 7, 3-Nitro-6-(2-propoxyphenyl)-2(1H)-pyridinone]	1.7 to 30 µM	7.7 µmol/kg	–	–
CCCOc1ccccc1-c1ccc(C#N)c(=O)[nH]1 [Example 1, 3-Cyano-6-(2-propoxyphenyl)-2(1H)-pyridinone]	1.7 to 30 µM	10 µmol/kg	11.5 µmol/kg	–
CCCOc1ccccc1-c1ccc(C(=O)O)c(=O)[nH]1 [Example 3, 6-(2-Propoxyphenyl)-1,2-dihydro-2-oxopyridine-3-carboxylic acid]	–	10.6 µmol/kg	–	–

Now from value to molecule, other results behind:

IC50 [1]	SMILES	ED50 [2]	ED (50% increase) [3]	inhibition of the control bronchoconstrictor response [4]
1.7 to 30 µM	CCCOc1ccccc1-c1[nH]c(=O)c(C#N)cc1C [Example 12, 3-Cyano-5-methyl-6-(2-propoxyphenyl)-2(1H)-pyridinone]	–	–	–
1.7 to 30 µM	CCOc1ccccc1-c1ccc(C#N)c(=O)[nH]1 [Example 9, 3-Cyano-6-(2-ethoxyphenyl)-2(1H)-pyridinone]	–	–	–
1.7 to 30 µM	CCCOc1ccccc1-c1ccc(C#N)c(=S)[nH]1 [Example 14, 3-Cyano-6-(2-propoxyphenyl)-2(1H)-pyridinethione]	–	–	–
1.7 to 30 µM	CCCOc1ccccc1-c1ccc(C(=O)OC)c(=O)[nH]1 [Example 4, Methyl 6-(2-propoxyphenyl)-1,2-dihydro-2-oxopyridine-3-carboxylate]	–	–	–
1.7 to 30 µM	CCCOc1ccccc1-c1cccc(=O)[nH]1 [Example 6, 6-(2-Propoxyphenyl)-2(1H)-pyridinone]	–	–	–
